What was measured:
[1] = tested on: SJ-G2 Glioblastoma; experiment: MTT cytotoxicity SJ-G2; format: cell-based; conditions: read-out: GI50 Concentration That Inhibits Cell Growth by 50%, 72 h
Experimental: (§1) Cytotoxicity assay studies were performed at Calvary Mater Newcastle Hospital, Waratah, NSW, Australia. In vitro studies were performed according to described methods. Complexes were prepared in DMSO as stock treatment (30 mM) solutions and stored at −20 °C. All cell lines were cultured in a humidified atmosphere with 5% CO2 at 37 °C and maintained in Dulbecco’s modified eagle’s medium (DMEM; Trace Biosciences, Melbourne, Australia) supplemented with 10% foetal bovine serum, sodium bicarbonate (10 mM), penicillin (100 IU mL^−1), streptomycin (100 μg mL^−1), and L-glutamine (4 mM). The non-cancer MCF10A cell line was cultured in DMEM.F12 (1:1) cell culture media (Composition in SI). Cytotoxicity was determined by plating cells in duplicate in 100 μL medium at a density of 2500–4000 cells per well in 96-well plates. After 24 h, when cells were in logarithmic growth, media (100 μL) with or without the test agent were added to each well (day 0). After 72 h of exposure, growth inhibitory effects were evaluated by MTT (3-[4,5-dimethylthiazol-2-yl]-2,5-diphenyltetrazolium bromide) assay, and absorbance was read at 540 nm. […] These calculations were based on the difference between the optical density values on day 0 and those at the end of drug exposure.

[2] = tested on: BE2-C Neuroblastoma; experiment: MTT cytotoxicity BE2-C; format: cell-based; conditions: read-out: GI50 Concentration That Inhibits Cell Growth by 50%, 72 h
Experimental: as §1

[3] = tested on: H460 Lung; experiment: MTT cytotoxicity H460; format: cell-based; conditions: read-out: GI50 Concentration That Inhibits Cell Growth by 50%, 72 h
Experimental: as §1

[4] = tested on: MIA Pancreas; experiment: MTT cytotoxicity MIA; format: cell-based; conditions: read-out: GI50 Concentration That Inhibits Cell Growth by 50%, 72 h
Experimental: as §1

[5] = tested on: MCF-7 Breast; experiment: MTT cytotoxicity MCF-7; format: cell-based; conditions: for GI50: read-out: GI50 Concentration That Inhibits Cell Growth by 50%, MCF-7 Breast, 72 h, MTT
Experimental: as §1

[6] = tested on: U87 Glioblastoma; experiment: MTT cytotoxicity U87; format: cell-based; conditions: read-out: GI50 Concentration That Inhibits Cell Growth by 50%, 72 h
Experimental: as §1

[7] = tested on: A2780 Ovarian; experiment: MTT cytotoxicity A2780; format: cell-based; conditions: read-out: GI50 Concentration That Inhibits Cell Growth by 50%, 72 h
Experimental: as §1

[8] = tested on: Du145 Prostate; experiment: MTT cytotoxicity Du145; format: cell-based; conditions: read-out: GI50 Concentration That Inhibits Cell Growth by 50%, 72 h
Experimental: as §1

[9] = tested on: A431 Skin; experiment: MTT cytotoxicity A431; format: cell-based; conditions: read-out: GI50 Concentration That Inhibits Cell Growth by 50%, 72 h
Experimental: as §1

[10] = tested on: HT29 Colon; experiment: MTT cytotoxicity HT29; format: cell-based; conditions: read-out: GI50 Concentration That Inhibits Cell Growth by 50%, 72 h
Experimental: as §1

[11] = tested on: MCF10A Breast (normal); experiment: MTT cytotoxicity MCF10A (non-cancer); format: cell-based; conditions: read-out: GI50 Concentration That Inhibits Cell Growth by 50%, 72 h
Experimental: as §1

[12] = tested on: ADDP Cis Res Ovarian; experiment: MTT cytotoxicity ADDP; format: cell-based; conditions: read-out: GI50 Concentration That Inhibits Cell Growth by 50%, 72 h
Experimental: as §1

[13] = tested on: calf thymus DNA (ctDNA); experiment: Direct ctDNA binding by inherent fluorescence (Benesi–Hildebrand); conditions: inherent fluorescence method, 10 µM CMC, buffer pH 7.0
Experimental: ctDNA experiments utilising the inherent fluorescence of the complexes were completed in addition to the FID experiments. […] The values of Ka and n for the compounds are listed in Table 4, where R^2 is the linear correlation coefficient for Ka.
The direct fluorescent measurements of DNA binding constants were also obtained with the same fluorimeter using 10 mm path length quartz cells. A 0.065 M stock solution of ctDNA was titrated into a 10 µM solution of CMCs 1–3 in a 40 mM K2HPO4/KH2PO, 10 mM KCl buffer at pH 7.0. The fluorescence was measured from 550 to 750 nm excited at 320 nm inverting 4 times and waiting 3 min between the addition of ctDNA and scan time to allow adequate time for the CMCs to interact with the DNA.

[14] = tested on: calf thymus DNA (ctDNA); experiment: Fluorescent intercalator displacement (FID) assay, EtBr-saturated ctDNA; format: binding; design: Kq (bimolecular quenching constant) / KSV (Stern–Volmer quenching constant): unit not given here; conditions: buffer pH 7.0
Experimental: To investigate the potential mechanisms of action of complexes 1–3, fluorescent intercalator displacement (FID) experiments and DNA binding experiments utilizing the innate fluorescence were undertaken. For FID experiments, the concentration of a fluorescent intercalator, in this case ethidium bromide (EtBr), that is displaced by the complex under investigation is determined. In a solution of calf-thymus DNA (ctDNA) where is saturated with EtBr, the change in fluorescence is monitored as the complex is titrated into this solution. Once the decrease in fluorescence has stopped, the concentration of the complex allows us to calculate the stoichiometric point of binding, the change in fluorescence at the point of binding (ΔFsat), the binding coefficient (Ka), bimolecular quenching constant (Kq), Stern–Volmer quenching constant (Ksv), the binding constant for fluorescence (KF), and the molar equivalents of CMC (n) at the point of intersection is the experimental stoichiometry of binding. (1) [ctDNA]Tn−∆Fx/∆Fsat=[CMC] (2) ∆Fx/∆Fsat1/n=fraction of ctDNA−CMC complex (3) 1−∆Fx/∆Fsat1/n=fraction free CMC
The fluorescence at 601 nm for each titration was plotted, and the KF and n could be calculated from the intercept and slope, respectively. (4) F0/F=1+Kqτ0CMC=1+KSV[CMC] where F0 is the fluorescence of the binding site in the absence of quencher (CMC), F is the fluorescence of the site containing the CMC, and t0 is the lifetime of the chromophore in the absence of the quencher (Ɛ476 = 5680 for ethidium-bound DNA).
A plot of F0/F against [CMC] using experimental values allows for the determination of Kq and KSV from the slope. (5) log10F0−F/F=nlog10CMC+log10KF where n is the number of ethidium ligands that are displaced per CMC. […] A plot of log10[(F0 − F)/F)] against log10[CMC] is used to determine KF and n from the intercept and slope, respectively. Experiments were performed in triplicate for each CMC.
Fluorescent intercalator displacement (FID) assays were obtained using the same instrument and by using 10 mm quartz cells. Stock solutions CMCs 1–3 (30 µM) were titrated into a solution of […] ethidium bromide, 150 µM ctDNA in a 40 mM K2HPO4/KH2PO, and 10 mM KCl buffer at pH 7.0. The fluorescence was measured from 550 to 750 nm excited at 480 nm and inverting 4 times and waiting 3 min between the addition of ctDNA and scan time to allow adequate time for the CMCs to interact with the DNA.

[15] = Lipophilicity by RP-HPLC (log Kw); format: physicochemical; conditions: isocratic 70 to 90% solvent B
Experimental: Lipophilicity was calculated using a RP-HPLC method to determine log Kw, whereby a stock solution was injected at different isocratic ratios ranging from 70 to 90% solvent B (organic) at a flow rate of 1 mL min^−1. These experiments were undertaken on an Agilent Technologies 1260 Infinity machine equipped with a Phenomenex Onyx™ Monolithic C18 reverse phase column (100 × 4.6 mm, 130 Å). The mobile phase comprised 0.06% TFA in water (solvent A) and 0.06% TFA in ACN:H2O (90:10, solvent B). The dead zero volume time was determined using potassium iodide as an external dead volume marker, further details are provided in the Supplementary Materials.

Row | Compound | GI50 [1] [µM] | GI50 [2] [µM] | GI50 [3] [µM] | GI50 [4] [µM] | GI50 [5] [µM] | GI50 [6] [µM] | GI50 [7] [µM] | GI50 [8] [µM] | GI50 [9] [µM] | GI50 [10] [µM] | GI50 [11] [µM] | GI50 [12] [µM] | Ka (binding constant) [13] | KSV (Stern–Volmer quenching constant) [14] | Ka (binding coefficient) [14] | Kf (binding constant for fluorescence) [14] | Kq (bimolecular quenching constant) [14] | Point of Experimental Stoichiometry of Binding [14] | n (number of ethidium ligands displaced per CMC) [14] | ΔFsat (change in fluorescence at the point of binding) [14] | other results
1 | N.N.[Cl][Pt][Cl] [Cisplatin, cisplatin, reference compound] | 0.4 ± 0.1 | 1.9 ± 0.2 | 0.9 ± 0.2 | 7.5 ± 1.3 | 6.5 ± 0.8 | 3.8 ± 1.1 | 1 ± 0.1 | 1.2 ± 0.1 | 2.4 ± 0.3 | 11.3 ± 1.9 | – | – | – | – | – | – | – | – | – | – | –
2 | [Pt(DiBequ)(RRDACH)]+ [Complex 3b] | 10.1 ± 2.6 | 33 ± 1.2 | 8.2 ± 2.9 | 12.5 ± 2 | 4.2 ± 0.3 | 4.1 ± 0.3 | 4.5 ± 0.3 | 16 ± 1.5 | 3.9 ± 0.4 | 16 ± 0.3 | 8.5 ± 1.4 | 6.9 ± 0.4 | 3.68 × 10^4 | 1.727 | 3.98 × 10^4 | 4.22 | 0.297 | 2.62 | 0.757 | 82.38 | Lipophilicity × 10^−2 (log Kw) [15]: 0.4 ± 0.029 × 10^−2
3 | [Pt(Bequ)(RRDACH)]+ [Complex 2b] | 10 ± 2.2 | 48 ± 1.7 | 8.1 ± 1 | 8.1 ± 1.6 | 7.7 ± 2 | 4.3 ± 0.3 | 5 ± 0.3 | 20 ± 2.7 | 3.4 ± 0.3 | 30 ± 2.3 | 10.3 ± 1.9 | 19 ± 3 | 1.39 × 10^4 | 1.662 | 1.59 × 10^4 | 3.78 | 0.271 | 2.47 | 0.668 | 89.01 | SI = GI50 for normal cells/GI50 for cancer cells (MCF10A/MCF-7) [5]: 1.33; Lipophilicity × 10^−2 (log Kw) [15]: 3.97 ± 0.053 × 10^−2
4 | [Pt(DiBequ)(SSDACH)]+ [Complex 3a] | 17 ± 0.6 | 9 ± 1.3 | 16 ± 0.9 | 15 ± 0.7 | 15 ± 0.5 | 16 ± 0.6 | 12 ± 0.9 | 23 ± 2.1 | 14 ± 0.6 | 16 | 16 ± 0.6 | 15 | 1.11 × 10^4 | 1.342 | 1.07 × 10^4 | 3.18 | 0.237 | 2.38 | 0.579 | 91.83 | SI = GI50 for normal cells/GI50 for cancer cells (MCF10A/MCF-7) [5]: 1.07; Lipophilicity × 10^−2 (log Kw) [15]: 0.77 ± 0.032 × 10^−2
5 | Cc1c(C)c2cccnc2c2ncccc12.N[C@H]1CCCC[C@@H]1N.[Pt] [Complex 56MESS, reference compound] | 0.074 ± 0.018 | 0.1 ± 0.016 | 0.037 ± 0.009 | 0.015 ± 0.002 | 0.05 ± 0.02 | 0.076 ± 0.014 | 0.03 ± 0.004 | 0.007 ± 0.002 | 0.051 ± 0.021 | – | 0.032 ± 0.007 | – | – | – | – | – | – | – | – | – | SI = GI50 for normal cells/GI50 for cancer cells (MCF10A/MCF-7) [5]: 0.64
6 | [Pt(Pepy)(SSDACH)]+ [Complex 1a] | 11 ± 0.7 | 34 ± 7.5 | 5.8 ± 0.4 | 8 ± 1.6 | 8.4 ± 2 | 5.3 ± 0.3 | 12 ± 0.7 | 9 ± 2 | 4.2 ± 0.5 | 13 ± 1 | 6.4 ± 0.5 | 5.1 ± 0.3 | 2.20 × 10^4 | 1.988 | 2.75 × 10^4 | 4.35 | 0.329 | 2.84 | 0.778 | 83.82 | SI = GI50 for normal cells/GI50 for cancer cells (MCF10A/MCF-7) [5]: 0.76
7 | [Pt(Pepy)(RRDACH)]+ [Complex 1b] | 20 ± 4.8 | 38 ± 4.6 | 25 ± 2.9 | 41 ± 2 | 13 ± 1.7 | 23 ± 2.2 | 31 ± 2.9 | 41 ± 0.9 | 29 ± 2.6 | 41 ± 2.7 | 32 ± 2.7 | 26 ± 0.6 | 1.46 × 10^4 | 1.957 | 1.58 × 10^4 | 4.23 | 0.328 | 2.65 | 0.757 | 86.38 | Lipophilicity × 10^−2 (log Kw) [15]: 1.52 ± 0.063 × 10^−2
8 | [Pt(Bequ)( SSDACH)]+ [Complex 2a] | 13 ± 2.2 | 23 ± 3.5 | 11 ± 1.5 | 20 ± 3 | 5.4 ± 1 | 8.6 ± 1.1 | 18 ± 2.3 | 26 ± 2 | 12 ± 2.4 | 16 ± 1.3 | 20 ± 1 | 14 ± 0.3 | 1.11 × 10^4 | 1.339 | 1.58 × 10^4 | 3.25 | 0.241 | 2.52 | 0.592 | 89.29 | Lipophilicity × 10^−2 (log Kw) [15]: 2.06 ± 0.097 × 10^−2
